Laboratory results reported in patent US20090258836A1, “EFFECTIVE DELIVERY OF CROSS-SPECIES A3 ADENOSINE-RECEPTOR ANTAGONISTS TO REDUCE INTRAOCULAR PRESSURE” (The Trustees of The University of Pennsylvania, priority 2006, published 2009).
Entries after “also recorded” stand apart in the source; their conditions may differ. Each block holds one molecule with its values, some of them ahead of it.

Experiments:
[1] = system: mouse IOP; assay: Mouse IOP after topical application, invasive servo-null micropipette system (SNMS); type: in vivo, Black Swiss mice; settings: for Δ(IOP) Servo-Null: endpoint 10 min
Protocol: (§1) The test animals were black Swiss outbred mice of mixed sex, 7-9 weeks old and 25-30 g in weight, obtained from Taconic Inc. (Germantown, N.Y.), and maintained under 12:12-h light/dark illumination cycle and allowed unrestricted access to food and water. Mice were anesthetized with intraperitoneal ketamine ([…]) supplemented by topical proparacaine HCl 0.5% (Allergan, Bausch & Lomb) for the IOP measurements. IOP was measured invasively (SNMS) and non-invasively by pneumotonometry in separate animals.
By the SNMS approach (Avila et al., supra, 2001), the exploring micropipette, of […] outer diameter, was filled with a highly conducting solution and advanced across the cornea into the anterior chamber. A refined technique by Wang et al., Invest. Opthalmol. Vis. Sci. (serial online) (Aug. 31, 2006) available at www.iovs.org/egi/letters/46/9/3274#422, enhanced stability and reduce the background noise of the records, permitting fabrication of micropipettes whose resistance is 0.1-0.3 MΩ, rather than the 0.25-0.4 MΩ used initially. The filling solution was reduced from 3M KCl to 2M NaCl, rather than 3 M KCl. The resistance of the filled micropipette was balanced in a bridge circuit, and the tip was then advanced across the cornea. Upon entering the anterior chamber of the eye, the IOP forces the much lower-conducting aqueous humor into the micropipette tip, displacing the original filling solution. The micropipette resistance was thereby increased, unbalancing the bridge circuit and triggering a bellows to provide a counter-pressure, restoring the position of the filling solution and returning the resistance to its initial value. Thus, the value of the counter-pressure equals the IOP. As in the past (Avila et al., supra, 2001), the stability of the records permitted continuous measurements for tens of minutes during the course of drug applications.
(§2) Ketamine HCl was purchased from Phoenix Pharmaceutical Inc. (St. Joseph, Mo.). Other drugs were obtained from Sigma Chemical (St. Louis, Mo.). Drugs were applied topically with an Eppendorf pipette. […] The final droplet solution contained the drugs at the stated concentrations together with <2% DMSO and 0.0005% benzalkonium chloride at an osmolality of 295-300 mOsm. DMSO was omitted, altogether, from droplets containing the hydrophilic compounds adenosine, carbachol and carboxyfluorescein.
(§3) Effects on invasively-measured IOP were measured 10 min after topical application because after this time, the continued presence of the micropipette can be associated with a downward drift of the IOP, even under control conditions. In contrast, smaller droplets ([…]) were applied to the eye more frequently (three times instead of once) with the non-invasive technique, in order to forestall drying of the eye associated with the airflow from the pneumotonometer. With the non-invasive protocol, the IOP was stable for 30 min under control conditions.
In Table 1, an endpoint of 10 minutes was used for the invasive measurements in light of the above-discussed downward drift of the IOP, even under control conditions. Also the need for smaller, more frequent droplets are discussed above with regard to the non-invasive technique using the pneumotonometer. As above, with the non-invasive protocol, the IOP was stable for 30 minutes under control conditions.

[2] = system: mouse IOP; assay: Mouse IOP after topical application, non-invasive pneumotonometry; type: in vivo, Black Swiss mice; settings: for Δ(IOP) Pneumotonometer: 30 min
Protocol: as §1
By comparison, IOP was measured non-invasively by pneumotonometry (OBT) (Avila et al., supra, 2005). As previously described, the commercially available tip of the ocular blood tomography (OBT) pneumotonometer (Blood Flow Analyzer [BFA] probe tip; Paradigm Medical Industries Inc.) was fit to a custom-built mount. Air flow from a constant pressure source was passed through the mount to reach a diaphragm forming the end of the BFA tip. The flow of air displaces the diaphragm outward, permitting escape of the air through holes in the wall of the probe tip into the atmosphere. Pressure was monitored with a transducer connected through a T-connection to the base of the BFA tip. The probe assembly was advanced to the cornea with a three-axis micromanipulator. The probe tip was advanced sufficiently to make contact with the tear film, as was indicated by a shift in the baseline output reading. In a refined method, the tip was withdrawn until the […] was visually displaced from the tear film. The output was then adjusted to zero before advancing the tip again. Contact with the cornea depresses the diaphragm of the BFA tip, occluding access of the air flow to the escape holes and raising the pressure at the base of the tip.
This approach was simplified to expedite identification of the endpoint, and the probe was subsequently advanced in about 10 standardized steps of approximately […] at intervals of about 10 seconds to identify the inflection region (Wang et al., supra, 2006). […] The pneumotonometric estimates of IOP were previously found to agree with manometric measurements in cannulated preparations and with estimates obtained by the servo-null technique (Avila et al., supra, 2005). Having established the baseline value of IOP, the position along the axis of advance of the micromanipulator was noted, and the probe was retracted from contact with the cornea. Subsequent measurements of IOP at later time points were obtained by advancing the probe tip to the same position, with the placement of the mouse maintained stereotactically. The measurements were conducted at 10-min intervals to avoid potential artifacts associated with prolonged pressure on the cornea.
as §2, §3
In Table 1, an endpoint of 10 minutes was used for the invasive measurements in light of the above-discussed downward drift of the IOP, even under control conditions. […]

[3] = system: HCE (human ciliary epithelial) cell line, NPE cells; settings: Civan et al.; read-out: EC50 of isosmotic shrinkage of cultured human NPE cells; cited from earlier work
[4] = system: cultured human NPE cells; settings: cited from earlier work
[5] = system: HCE (human ciliary epithelial) cell line, NPE cells; assay: Cell volume in isosmotic solution (isosmotic shrinkage), Coulter Counter; type: cell-based; settings: 10 μM adenosine; 2 min preincubation with 300 nM MRS-1097, 100 nM MRS-1191 or 100 nM MRS-1523
Protocol: Cell Culture The HCE (human ciliary epithelial) cell line (Carre et al., supra, 1997) is an immortalized NPE cell line obtained from primary cultures of adult human epithelium. […] Eye Res. 57:3057-3063 (1993); Yantorno et al., Exp. Eye Res. 49:423-437 (1989)). […] Cells were passaged every 6-7 days and were studied 8-13 days after passage, after reaching confluence. An immortalized PE-cell line from a primary culture of bovine pigmented ciliary epithelium were also grown under matching conditions. Measurement of Cell Volume in Isosmotic Solution: The volume of PE and NPE cells was measured, since the movement of fluid underlies a change in PE and NPE cell volume, respectively. This is also thought to be the same as the movement of fluid which underlines the secretion of aqueous humor (FIG. 1). […] Parallel aliquots of cells were studied on the same day. One aliquot usually served as a control, and the others were exposed to different experimental conditions at the time of suspension. The same amount of solvent vehicle (dimethylformamide, DMSO or ethanol) was always added to the control and experimental aliquots. […] Cell volumes of isosmotic suspensions were measured with a Coulter Counter (model ZBI-Channelyzer II), using a 100 μm aperture (Civan et al., supra, 1994). As previously described (Wax et al., supra, 1993), the cell volume (vC) of the suspension was taken as the peak of the distribution function. Cell shrinkage was fit as a function of time (t) to a monoexpenential function: […]^0^)/τ] {1) where v∞ is the steady-state cell volume, v0 is the cell volume at the first point (t0) of the time course to be fit, and τ is the time constant of the shrinkage. For purposes of data reduction, the data were normalized to the first time point, taken to be 100% isotonic volume. Fits were obtained by nonlinear least-squares regression analysis, permitting both v∞ and τ to be variables. […] Med. Chem. 37:636-646 (1994; Jacobson et al., supra, 1995; Jacobson et al., FEBS Lett. 336:57-60 (1993)).

[6] = target: T1, human A1 receptors (Homo sapiens, UniProt P30542); settings: literature; read-out: Ki for the binding to human A1 receptors; cited from earlier work
T1 sequence (P30542 1-326): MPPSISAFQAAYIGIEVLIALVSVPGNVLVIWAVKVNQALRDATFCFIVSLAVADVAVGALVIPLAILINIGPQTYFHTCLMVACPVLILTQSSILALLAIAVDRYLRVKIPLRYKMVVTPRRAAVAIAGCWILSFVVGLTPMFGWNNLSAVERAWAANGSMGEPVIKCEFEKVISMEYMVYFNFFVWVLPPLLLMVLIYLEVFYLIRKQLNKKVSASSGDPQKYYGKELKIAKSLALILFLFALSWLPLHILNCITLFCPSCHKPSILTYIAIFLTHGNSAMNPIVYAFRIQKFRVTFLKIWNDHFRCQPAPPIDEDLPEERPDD

[7] = target: human A2A receptors (Homo sapiens, UniProt P29274); settings: literature; read-out: Ki for the binding to human A2A receptors; cited from earlier work
Chain of human A2A receptors (P29274 whole entry): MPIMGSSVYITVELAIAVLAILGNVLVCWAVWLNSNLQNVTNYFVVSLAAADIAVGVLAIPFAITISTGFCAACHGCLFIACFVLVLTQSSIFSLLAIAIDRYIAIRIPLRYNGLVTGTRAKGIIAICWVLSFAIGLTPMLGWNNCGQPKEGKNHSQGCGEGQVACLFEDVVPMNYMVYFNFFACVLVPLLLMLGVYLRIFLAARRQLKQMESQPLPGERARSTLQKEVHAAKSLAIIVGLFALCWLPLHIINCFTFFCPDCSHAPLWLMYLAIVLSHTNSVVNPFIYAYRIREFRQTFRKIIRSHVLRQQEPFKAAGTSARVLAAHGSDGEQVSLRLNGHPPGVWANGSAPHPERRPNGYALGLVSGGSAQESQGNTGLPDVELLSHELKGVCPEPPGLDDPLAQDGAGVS

[8] = target: T2, human A3 receptors (Homo sapiens, UniProt P0DMS8); settings: literature; read-out: Ki for the binding to human A3 receptors; cited from earlier work
T2 sequence (P0DMS8 1-318): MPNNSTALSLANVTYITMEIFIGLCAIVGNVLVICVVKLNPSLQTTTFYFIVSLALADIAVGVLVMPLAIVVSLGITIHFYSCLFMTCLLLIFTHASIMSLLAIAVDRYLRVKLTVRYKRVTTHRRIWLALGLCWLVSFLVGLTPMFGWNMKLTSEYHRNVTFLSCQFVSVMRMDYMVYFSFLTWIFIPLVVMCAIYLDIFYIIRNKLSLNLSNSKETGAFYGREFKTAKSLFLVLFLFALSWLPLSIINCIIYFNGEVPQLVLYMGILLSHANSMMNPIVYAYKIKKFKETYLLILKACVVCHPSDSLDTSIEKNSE

[9] = target: T3, human A2B adenosine receptor (Homo sapiens, UniProt P29275); assay: Potency at human A2B adenosine receptor; type: binding; settings: at 10 μM
T3 construct: expressed in transfected cells; host or cells: CHO cells (stably transfected)
T3 sequence (P29275 1-332): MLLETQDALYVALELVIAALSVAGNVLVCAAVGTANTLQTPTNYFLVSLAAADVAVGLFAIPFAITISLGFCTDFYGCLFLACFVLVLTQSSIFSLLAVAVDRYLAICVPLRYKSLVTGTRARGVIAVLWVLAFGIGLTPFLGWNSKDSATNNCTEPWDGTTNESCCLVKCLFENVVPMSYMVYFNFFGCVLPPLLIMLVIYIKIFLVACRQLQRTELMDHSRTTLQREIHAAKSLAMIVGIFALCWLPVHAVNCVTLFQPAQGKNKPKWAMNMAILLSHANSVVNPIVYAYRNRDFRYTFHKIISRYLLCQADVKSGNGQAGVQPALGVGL

[10] = target: T4, rat A3 receptors (Rattus norvegicus, UniProt P28647); assay: Radioligand binding, [125I]AB-MECA, CHO cells; settings: means±SEM, N=3-4
T4 construct: expressed in transfected cells; host or cells: CHO cells (stably transfected)
T4 sequence (P28647 1-320): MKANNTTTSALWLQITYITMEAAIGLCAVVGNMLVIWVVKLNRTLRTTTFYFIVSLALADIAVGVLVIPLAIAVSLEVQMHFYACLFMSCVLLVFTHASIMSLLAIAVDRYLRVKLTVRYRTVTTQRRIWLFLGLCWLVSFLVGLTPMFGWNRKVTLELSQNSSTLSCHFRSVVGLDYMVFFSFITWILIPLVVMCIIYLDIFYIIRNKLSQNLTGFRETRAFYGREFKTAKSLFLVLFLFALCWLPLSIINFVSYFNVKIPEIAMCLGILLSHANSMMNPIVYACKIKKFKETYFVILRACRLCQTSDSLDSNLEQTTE

[11] = Dye penetration into the anterior chamber with or without corneal impalement; type: in vivo, mouse; settings: 0.003% droplet, 5 min, impaled eyes
Protocol: Whether drug penetration into the eye was influenced by corneal impalement by a micropipette was further tested by topically applying a […] containing 0.003% carboxyfluorescein ([…]) to both eyes of two mice. Carboxyfluorescein is a highly polar molecule that crosses the barrier layers of the eye poorly. In each mouse, an exploring micropipette was first advanced into the aqueous humor of one eye while the companion eye was not impaled. After 5 min, the dye was washed out with isotonic saline.

Molecule: Nc1ncnc2c1ncn2[C@@H]1O[C@H](CO)[C@@H](O)[C@H]1O [Adenosine, adenosine]
increase in IOP over baseline ([1]; SNMS, after 10 min, adenosine 10 mM, Cl-IB-MECA 200 nM droplet): 24.0±4.7 mmHg
Δ(IOP) Servo-Null ([1]; topical droplet 10 mM): +22.4 ± 6.5 mm Hg
delay of the increase in IOP when measured non-invasively ([2]; topical): about 10 minutes
Δ(IOP) Pneumotonometer ([2]; topical droplets 10 mM): +4.8 ± 1.7 mm Hg
EC50 [3]: 3000 to 10000 nM
time constant (τ) of the adenosine-triggered shrinkage ([4]; 10 μM adenosine without antagonist): 3.8 ± 0.6 min
degree of shrinkage relative to control ([4]; 10 μM): increased the degree of shrinkage several-fold

Molecule: CCCOC(=O)c1c(-c2ccccc2)nc(CC)c(C(=O)SCC)c1CCC [MRS-1523]
effect of A3 antagonist on adenosine-stimulated isotonic shrinkage of NPE cells [5]: prevented the characteristic shrinkage; also recorded: blocked the shrinkage; also recorded: eliminated the actions of adenosine
effect on IOP in the mouse (in words) ([1]; tested by the inventors, technique not given): found to lower IOP in the mouse
Ki [6]: 15600 nM
Ki [7]: 2050 nM
Ki [8]: 19 nM

potency at A2B [9]: < 10%
Ki [10]: 3.9 ± 1.2 nM
Molecule: OC1CSC(n2cnc3c(NCc4cccc(I)c4)nc(Cl)nc32)C1O (centres unmarked) [MRS-3820, 2-(2-chloro-6-(3-iodobenzylamino)-9H-purin-9-yl)tetrahydrothiophene-3,4-diol]
Δ(IOP) Servo-Null ([1]; topical droplet 5 μM (0.2% DMSO)): −2.2 ± 0.7 mm Hg
Δ(IOP) Servo-Null ([1]; topical droplet 25 μM (0.2% DMSO)): −4.9 ± 1.7 mm Hg
Δ(IOP) Servo-Null ([1]; topical droplet 75 μM (0.6% DMSO)): −3.1 ± 1.4 mm Hg
Δ(IOP) Servo-Null ([1]; topical droplet 250 μM (2% DMSO)): −1.5 ± 0.6 mm Hg
time to significant reduction of non-invasively measured IOP ([2]; 250 μM droplet): ≤ 20 min
reduction in IOP 30 minutes post-administration ([2]; 250 μM droplet, normal mice, non-invasive, baseline 16.7±1.1): 4.2±0.7 mmHg
reduction in IOP 20 min following application ([2]; 250 μM, non-invasive): 3.4±0.7 mm Hg
Δ(IOP) Pneumotonometer ([2]; topical droplets 25 μM (0.2% DMSO)): −0.6 ± 1.5 mm Hg

Molecule: carboxyfluorescein
fluorescence in the anterior chamber [11]: Green fluorescence was observed in the anterior chamber of the impaled mouse eyes
